Measured values taken from the supplement of paper PMC10307832.

Key:
Assay in all cases: relative viability (nuclei count vs DMSO), 5 days (fraction); higher = more cells survive
LCLC-103H = test system: LCLC-103H
Outline: (§1)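 Dosing by pin tool came one day after lung cancer cell lines were seeded in 1536-well plates, using either one drug or a fixed anchor-drug dose plus five library-drug doses (not always all listed) in √10 steps. After 5 days, nuclei were counted on 4× images. Relative viability is treated-well nuclei count divided by vehicle-well nuclei count, and values are medians of duplicate plates.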

LXF-289 = test system: LXF-289
Outline: as §1

NCI-H1355 = test system: NCI-H1355
Outline: as §1

NCI-H1651 = test system: NCI-H1651
Outline: as §1

NCI-H1755 = test system: NCI-H1755
Outline: as §1

NCI-H1915 = test system: NCI-H1915
Outline: as §1

NCI-H2170 = test system: NCI-H2170
Outline: as §1

NCI-H2347 = test system: NCI-H2347
Outline: as §1

NCI-H3122 = test system: NCI-H3122
Outline: as §1

NCI-H322M = test system: NCI-H322M
Outline: as §1

NCI-H441 = test system: NCI-H441
Outline: as §1

NCI-H460 = test system: NCI-H460
Outline: as §1

NCI-H520 = test system: NCI-H520
Outline: as §1

NCI-H522 = test system: NCI-H522
Outline: as §1

NCI-H596 = test system: NCI-H596
Outline: as §1

NCI-H650 = test system: NCI-H650
Outline: as §1

NCI-H661 = test system: NCI-H661
Outline: as §1

NCI-H727 = test system: NCI-H727
Outline: as §1

PC-14 = test system: PC-14
Outline: as §1

RERF-LC-KJ = test system: RERF-LC-KJ
Outline: as §1

SK-MES-1 = test system: SK-MES-1
Outline: as §1

SW 900 = test system: SW 900
Outline: as §1

Clc1ccc(Nc2nnc(Cc3ccncc3)c3ccccc23)cc1 [Vatalanib] + O=C(CCCCCCC(=O)Nc1ccccc1)NO [Vorinostat] (partner 1 µM)
relative viability (LCLC-103H; first compound 0.04 µM): 0.776
relative viability (LCLC-103H; first compound 0.1265 µM): 0.765
relative viability (LCLC-103H; first compound 0.4 µM): 0.826
relative viability (LCLC-103H; first compound 1.265 µM): 0.738
relative viability (LCLC-103H; first compound 4 µM): 0.726
relative viability (LXF-289; first compound 0.04 µM): 0.844
relative viability (LXF-289; first compound 0.1265 µM): 0.832
relative viability (LXF-289; first compound 0.4 µM): 0.801
relative viability (LXF-289; first compound 1.265 µM): 0.712
relative viability (LXF-289; first compound 4 µM): 0.75
relative viability (NCI-H1355; first compound 0.04 µM): 0.684
relative viability (NCI-H1355; first compound 0.1265 µM): 0.691
relative viability (NCI-H1355; first compound 0.4 µM): 0.727
relative viability (NCI-H1355; first compound 1.265 µM): 0.57
relative viability (NCI-H1355; first compound 4 µM): 0.581
relative viability (NCI-H1651; first compound 0.04 µM): 0.506
relative viability (NCI-H1651; first compound 0.1265 µM): 0.606
relative viability (NCI-H1651; first compound 0.4 µM): 0.594
relative viability (NCI-H1651; first compound 1.265 µM): 0.524
relative viability (NCI-H1651; first compound 4 µM): 0.557
relative viability (NCI-H1755; first compound 0.04 µM): 0.799
relative viability (NCI-H1755; first compound 0.1265 µM): 0.891
relative viability (NCI-H1755; first compound 0.4 µM): 0.757
relative viability (NCI-H1755; first compound 1.265 µM): 0.759
relative viability (NCI-H1755; first compound 4 µM): 0.694
relative viability (NCI-H1915; first compound 0.04 µM): 0.507
relative viability (NCI-H1915; first compound 0.1265 µM): 0.544
relative viability (NCI-H1915; first compound 0.4 µM): 0.587
relative viability (NCI-H1915; first compound 1.265 µM): 0.482
relative viability (NCI-H1915; first compound 4 µM): 0.518
relative viability (NCI-H2170; first compound 0.04 µM): 0.858
relative viability (NCI-H2170; first compound 0.1265 µM): 0.853
relative viability (NCI-H2170; first compound 0.4 µM): 0.825
relative viability (NCI-H2170; first compound 1.265 µM): 0.743
relative viability (NCI-H2170; first compound 4 µM): 0.764
relative viability (NCI-H2347; first compound 0.04 µM): 0.473
relative viability (NCI-H2347; first compound 0.1265 µM): 0.772
relative viability (NCI-H2347; first compound 0.4 µM): 0.516
relative viability (NCI-H2347; first compound 1.265 µM): 0.501
relative viability (NCI-H2347; first compound 4 µM): 0.586
relative viability (NCI-H3122; first compound 0.04 µM): 1.27
relative viability (NCI-H3122; first compound 0.1265 µM): 0.99
relative viability (NCI-H3122; first compound 0.4 µM): 0.96
relative viability (NCI-H3122; first compound 1.265 µM): 1.01
relative viability (NCI-H3122; first compound 4 µM): 1.12
relative viability (NCI-H322M; first compound 0.04 µM): 0.898
relative viability (NCI-H322M; first compound 0.1265 µM): 0.867
relative viability (NCI-H322M; first compound 0.4 µM): 0.825
relative viability (NCI-H322M; first compound 4 µM): 0.899
relative viability (NCI-H441; first compound 0.04 µM): 0.907
relative viability (NCI-H441; first compound 0.1265 µM): 0.589
relative viability (NCI-H441; first compound 0.4 µM): 0.704
relative viability (NCI-H441; first compound 1.265 µM): 0.776
relative viability (NCI-H441; first compound 4 µM): 0.81
relative viability (NCI-H460; first compound 0.04 µM): 0.859
relative viability (NCI-H460; first compound 0.1265 µM): 0.636
relative viability (NCI-H460; first compound 0.4 µM): 0.765
relative viability (NCI-H460; first compound 1.265 µM): 0.702
relative viability (NCI-H460; first compound 4 µM): 0.61
relative viability (NCI-H520; first compound 0.04 µM): 0.621
relative viability (NCI-H520; first compound 0.1265 µM): 0.642
relative viability (NCI-H520; first compound 0.4 µM): 0.817
relative viability (NCI-H520; first compound 1.265 µM): 0.661
relative viability (NCI-H520; first compound 4 µM): 0.718
relative viability (NCI-H522; first compound 0.04 µM): 0.634
relative viability (NCI-H522; first compound 0.1265 µM): 0.898
relative viability (NCI-H522; first compound 0.4 µM): 1.06
relative viability (NCI-H522; first compound 1.265 µM): 1
relative viability (NCI-H522; first compound 4 µM): 0.895
relative viability (NCI-H596; first compound 0.04 µM): 0.603
relative viability (NCI-H596; first compound 0.1265 µM): 0.542
relative viability (NCI-H596; first compound 0.4 µM): 0.672
relative viability (NCI-H596; first compound 1.265 µM): 0.583
relative viability (NCI-H596; first compound 4 µM): 0.608
relative viability (NCI-H650; first compound 0.04 µM): 0.397
relative viability (NCI-H650; first compound 0.1265 µM): 0.496
relative viability (NCI-H650; first compound 0.4 µM): 0.453
relative viability (NCI-H650; first compound 1.265 µM): 0.414
relative viability (NCI-H650; first compound 4 µM): 0.443
relative viability (NCI-H661; first compound 0.04 µM): 0.8
relative viability (NCI-H661; first compound 0.1265 µM): 0.872
relative viability (NCI-H661; first compound 0.4 µM): 0.778
relative viability (NCI-H661; first compound 1.265 µM): 0.775
relative viability (NCI-H661; first compound 4 µM): 0.805
relative viability (NCI-H727; first compound 0.1265 µM): 1.28
relative viability (NCI-H727; first compound 0.4 µM): 1.17
relative viability (NCI-H727; first compound 1.265 µM): 1.1
relative viability (NCI-H727; first compound 4 µM): 1.17
relative viability (PC-14; first compound 0.04 µM): 0.746
relative viability (PC-14; first compound 0.1265 µM): 0.721
relative viability (PC-14; first compound 0.4 µM): 0.801
relative viability (PC-14; first compound 1.265 µM): 0.716
relative viability (PC-14; first compound 4 µM): 0.62
relative viability (RERF-LC-KJ; first compound 0.04 µM): 0.714
relative viability (RERF-LC-KJ; first compound 0.1265 µM): 0.747
relative viability (RERF-LC-KJ; first compound 0.4 µM): 0.69
relative viability (RERF-LC-KJ; first compound 1.265 µM): 0.665
relative viability (RERF-LC-KJ; first compound 4 µM): 0.651
relative viability (SK-MES-1; first compound 0.04 µM): 1.13
relative viability (SK-MES-1; first compound 0.1265 µM): 1.11
relative viability (SK-MES-1; first compound 0.4 µM): 1.12
relative viability (SK-MES-1; first compound 1.265 µM): 0.98
relative viability (SK-MES-1; first compound 4 µM): 0.985
relative viability (SW 900; first compound 0.04 µM): 0.551
relative viability (SW 900; first compound 0.1265 µM): 0.549
relative viability (SW 900; first compound 0.4 µM): 0.583
relative viability (SW 900; first compound 1.265 µM): 0.344
relative viability (SW 900; first compound 4 µM): 0.591
